Test results from article PMC9788418, “Design, Synthesis and Biological Evaluation of Syn and Anti-like Double Warhead Quinolinones Bearing Dihydroxy Naphthalene Moiety as Epidermal Growth Factor Receptor Inhibitors with Potential Apoptotic Antiproliferative Action” (Molecules, 2022).

How the values were obtained:
[1] = system: Bcl-2; experiment: Bcl-2 inhibition assay; format: cell-based, human; details: for Bcl-2 Conc: A-549; for Bcl-2 Fold Reduction: A-549, vs control
Procedure: 4.2.5. Bcl-2inhibition assay
Mix all reagents thoroughly without foaming before use. Wash the microwells twice with approximately 300 μL Wash Buffer per well with thorough aspiration of microwell contents between washes. Take caution not to scratch the surface of the microwells. After the last wash, empty the wells and tap microwell strips on absorbent pad or paper towel to remove excess Wash Buffer. Use the microwell strips immediately after washing or place upside down on a wet absorbent paper for not […]
longer than 15 minutes. […] Add 100 μL of Sample Diluent in duplicate to all standard wells and to the blank wells. Prepare standard (1:2 dilution) in duplicate ranging from 32 ng/mL to 0.5 ng/mL. Add 100 μL of Sample Diluent, in duplicate, to the blank wells. Add 80 μL of Sample Diluent, in duplicate, to the sample wells. Add 20 μL of each Sample, in duplicate, to the designated wells. Add 50 μL of diluted biotin-conjugate to all wells, including the blank wells. Cover […]
Remove plate cover and empty the wells. […]
plate cover and incubate at room temperature, on a microplate shaker at 100 rpm if available, for 1 hour. Remove plate cover and empty the wells. Wash microwell strips 3 times as described in step 2.
Proceed to the next step. Pipette 100 μl of mixed TMB Substrate Solution to all wells, including the […]
available on a rotator set at 100 rpm. Avoid direct exposure to intense light. The point, at which the substrate reaction is stopped, is often determined by the ELISA reader. Many ELISA readers record absorbance only up to 2.0 O.D. Therefore, the color development within individual microwells must be watched by the person running the assay and the substrate reaction stopped before positive wells are no longer properly detectable. Stop the enzyme reaction by quickly pipetting 100 μL of Stop Solution into each well, including the blank wells. It is important that the Stop Solution is spread quickly and uniformly throughout the microwells to completely inactivate the enzyme. Results must be read immediately after the Stop Solution is added or within one hour if the microwell strips are stored at 2 - 8°C in the dark. Read absorbance of each microwell on a spectrophotometer using 450 nm as the primary wave length. […]

Row | melting point [°C] | SMILES | Bcl-2 Conc [1] [ng/mL] | Bcl-2 Fold Reduction [1]
1 | > 360 | O=c1cc(-n2cc(COc3cccc4cccc(OCc5cn(-c6cc(=O)[nH]c7ccccc67)nn5)c34)nn2)c2ccccc2[nH]1 [Compound 4a, 4,4′-(((naphthalene-1,8-diylbis(oxy))bis(methylene))bis(1H-1,2,3-triazole-4,1-diyl))-bis-(quinolin-2(1H)-one)] | 1.05 | 5
2 | – | Cc1ccc2[nH]c(=O)cc(-n3cc(COc4cccc5cccc(OCc6cn(-c7cc(=O)[nH]c8ccc(C)cc78)nn6)c45)nn3)c2c1 [Compound 4b, 4,4′-(((naphthalene-1,8-diylbis(oxy))bis(methylene))bis(1H-1,2,3-triazole-4,1-diyl))-bis(6-methylquinolin-2(1H)-one)] | 1.17 | 4
